Where a name gives a salt, the structure may show the parent alone.
Columns and labels:
Wistar derived male rats = assay: 2,4-dinitrobenzenesulfonic acid (DNBS) induced distal colitis; format: in vivo, rat; settings: 30 mg/kg×7, oral administration
P2X7 [1] = target: T1, P2X7 (Homo sapiens, UniProt Q99572); assay: YO-PRO-1 dye uptake assay in U373 cells stably expressing P2X7; format: cell-based; design: The complete open reading frame of human P2X7 was amplified from Incyte clone 148057; expressed in transfected cells; settings: dye uptake through P2X7, U373 cells, 300 μM BzATP, 5 μM YO-PRO-1, test compounds 30 nM to 3 μM; read-out: IC50
T1 sequence (Q99572 1-595): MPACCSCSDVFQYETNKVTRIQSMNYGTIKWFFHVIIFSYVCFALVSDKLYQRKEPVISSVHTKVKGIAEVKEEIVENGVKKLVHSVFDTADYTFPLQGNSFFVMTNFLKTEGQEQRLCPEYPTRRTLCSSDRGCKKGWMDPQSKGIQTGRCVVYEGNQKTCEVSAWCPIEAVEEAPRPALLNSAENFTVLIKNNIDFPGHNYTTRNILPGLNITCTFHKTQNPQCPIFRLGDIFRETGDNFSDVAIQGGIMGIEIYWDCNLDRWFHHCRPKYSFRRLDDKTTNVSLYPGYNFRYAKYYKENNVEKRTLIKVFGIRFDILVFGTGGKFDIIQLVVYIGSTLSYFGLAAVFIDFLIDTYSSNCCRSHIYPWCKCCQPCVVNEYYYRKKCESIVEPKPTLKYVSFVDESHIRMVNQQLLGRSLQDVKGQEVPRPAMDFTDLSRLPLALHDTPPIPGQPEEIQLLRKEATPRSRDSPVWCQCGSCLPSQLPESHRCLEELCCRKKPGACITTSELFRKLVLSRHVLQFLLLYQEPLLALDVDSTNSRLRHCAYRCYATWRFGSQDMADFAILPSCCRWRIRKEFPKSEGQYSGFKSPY
How it was run: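 U373 cells stably expressing human P2X7 preincubated 20 min at 37° C. with compound (30 nM to 3 μM) in Mg/Ca-free HBSS. YO-PRO-1 (5 μM final) and BzATP (300 μM final) then added for 1.5 h at 37° C.; dye-uptake fluorescence compared with compound-free control.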

P2X7 [2] = target: T1, P2X7; assay: BzATP-induced IL-1β secretion from human monocytes/macrophages activated by beta amyloid peptide 1-42 (ELISA); format: cell-based; design: Monocytes were isolated from peripheral blood mononuclear cells (PBMCs); endogenous in cells; host or cells: primary monocytes isolated from peripheral blood mononuclear cells
Procedure: Cell isolation: Monocytes were isolated from peripheral blood mononuclear cells (PBMCs) as follows. Whole blood was layered directly onto Histopak 1077-1 columns (Sigma Biochemicals) and centrifuged at 800×g for 15 minutes. The PBMC band of cells was removed to a fresh 50 ml culture tube and diluted 1:1 with wash buffer (Phosphate buffered saline, pH 7.4 containing 2 mM EDTA and 5 mg/ml BSA) followed by centrifugation at 800×g for 5 minutes. Cells were then washed by sequential resuspension of the cell pellet in wash buffer and centrifugation at 600×g for 5 minutes. The wash process was repeated until the supernatant was clear of contaminating platelets (5 to 6 washes). Monocytes were then purified from the PBMCs by negative selection using a monocyte isolation kit (Miltenyi Biotec, Inc) that contains antibodies to non-monocytic cells, running the cells over a magnetic column to remove antibody-bound cells, and collecting the flow through volume of monocytes. Monocytes were washed once with wash buffer and seeded at 10E5 cells per well in 100 μl serum-free RPMI 1640 in 96-well plates and incubated for 1 hour at 37° C. in a 5% CO2/95% humidified tissue culture incubator. After 1 hour, the medium was replaced with 100 μl complete culture medium (RPMI 1640, 10% human serum-type AB (heat inactivated), 25 mM HEPES, 2 mM glutamine, 50 U/ml each of penicillin and streptomycin) and incubated overnight (16 hours). Dosing regimen: The next day, the culture medium was replaced with 100 μl fresh complete culture medium in the absence or presence of human beta amyloid 1-42 peptide (5 μM) and incubated at 37° C. in a 5% CO2/95% humidified tissue culture incubator for 5 hours. Medium was then removed and discarded. Each well was washed once with Hanks buffered saline (HBSS) containing 1 mM CaCl2 followed by the addition of 80 μl of HBSS/CaCl2. […] Medium was then removed to new 96-well plates for storage at −70° C. until the IL-1β content was quantitated by ELISA (from R&D Systems). The cells were washed once with HBSS/CaCl2 followed by lysing the cells with 100 μl ice cold lysis buffer (100 mM Tris, pH 7.6, 1% triton X-100, and 1 tablet per 30 ml Complete TM protease inhibitor from Roche Biochemicals, Inc). Cell lysates were stored at −70° C. until the IL-1β was quantitated by ELISA. The results thus obtained for percent inhibition of BzATP-induced IL-1β secretion using a few of the P2X-7 compounds of the present invention are summarized in Table 7.

[3] = tested on: Long Evans derived male rats; assay: carrageenan induced paw edema; format: in vivo, rat; settings: 150 mg/kg, PO
Balb/cByJ mice = assay: monoclonal antibody (mAb) type II collagen induced arthritis; format: in vivo, mouse; settings: 3 mg/kg×3, PO
Procedure: This Example illustrates the anti-inflammatory activity of the compounds of this invention using a model of Balb/c mice subjected to monoclonal antibody (mAb) type II collagen induced arthritis.
A compound of this invention is dissolved in vehicle of 2% Tween 80/0.9% NaCl, at doses of 50 or 30 and administered orally (50 mg/kg) or intraperitoneally at 30 mg/kg once daily for 3 consecutive days after monoclonal antibody of collagen was injected. Dosing volume is 20 ml/kg.
Groups of 5 Balb/cByJ mice strain, 6-8 weeks of age, are used for the induction of arthritis by monoclonal antibodies (mAbs) responding to type II collagen, plus lipopolysaccharide (LPS). The animals are administered intravenously with a combination of 4 different mAbs (D8, F10, DI-2G and A2) in total of 4 mg/mouse at day 0, and followed by intravenous 25 μg of LPS 72 hours later (day 3). From day 3, one hour after LPS administration, ML-659 at 50 mg/kg (PO) or 30 mg/kg (IP) and vehicle (2% Tween 80/0.9% NaCl, PO) as well as the positive control indomethacin, 3 mg/kg (PO) are administrated once daily for 3 consecutive days. A plethysmometer (Ugo Basile Cat # 7150) with water cell (12 mm diameter) is used for the measurement of increase in volume of the two hind paws at day 0, 5, 7, 10, 14, and 17. The percent inhibition of increase in volume is calculated by the following formula: Inhibition (%): [1−(Tn−To)/(Cn−Co)]×100 Where: Co (Cn): volume of day 0 (day n) in vehicle control To (Tn): volume of day 0 (day n) in test compound-treated group The reduction of both of two hind paws edema by more than 30% is considered significant.

[4] = BzATP (300 μM)-induced IL-1β secretion, human monocytes primed with beta amyloid 1-42 (5 μM), read-out: IC50

With O=C(O)c1cc(/N=N/c2ccc(S(=O)(=O)Nc3ccccn3)cc2)ccc1O [sulfasalazine] the “inhibition of the inflammation” value (Wistar derived male rats) was 37%.

Compound Fc1ccc(CC2=N[C@@H](c3ccccc3)[C@@H](c3ccccc3)N2)cc1Cl [trifluoroacetate] has an IC50 (P2X7 [1]) of 0.013 µM and an IC50 (P2X7 [2]; [4]) of 0.157 µM.

CC(=O)Oc1ccccc1C(=O)O [aspirin] was tested, and the “inhibition of inflammation (hind paw edema)” value [3] was 38%.

In the case of Fc1cccc(CNC2=N[C@@H](c3cccc(F)c3)[C@@H](c3cccc(F)c3)N2)c1 [[cis-4,5-bis-(3-Fluorophenyl)-4,5-dihydro-1H-imidazol-2-yl]-(3-fluorobenzyl)amine hydrochloride], the IC50 (P2X7 [1]) is reported as 0.042 µM and the IC50 (P2X7 [2]) is reported as 1.28 µM.

With Fc1ccc(CNC2=NC(c3ccccc3)C(c3ccccc3)N2)cc1 (stereo not shown) [hydrochloride] the IC50 (P2X7 [2]; [4]) was 0.693 µM.

In the case of COc1ccc2c(c1)c(CC(=O)O)c(C)n2C(=O)c1ccc(Cl)cc1 [indomethacin], the “effect relative to the vehicle treated group (hind paws edema)” value (Balb/cByJ mice; day 5) is reported as 63%, the “effect relative to the vehicle treated group (hind paws edema)” value (Balb/cByJ mice; day 7) is reported as 70% and the “effect relative to the vehicle treated group (hind paws edema)” value (Balb/cByJ mice; day 10) is reported as 80%. For the same compound, the “effect relative to the vehicle treated group (hind paws edema)” value (Balb/cByJ mice; day 14) was 88% and the “effect relative to the vehicle treated group (hind paws edema)” value (Balb/cByJ mice; day 17) was 85%.

CC(C)(CC1=NC(c2ccccc2)C(c2ccccc2)N1)c1ccccc1 (stereo not shown) [trifluoroacetate] was tested, and the IC50 (P2X7 [2]; [4]) was 0.178 µM.
